# Assay results taken from PubChem BioAssay (NCI).
#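 In this assay, cells in 96-well plates receive the compound at five concentrations for 48 hours. Endpoints are linearly interpolated between the surrounding concentrations. TGI is the concentration that stops growth completely.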
# Tests used:
# Assay in all cases: DTP human tumour cell line panel, 48 h
# TK-10 renal = system: TK-10 renal
# SK-MEL-2 melanoma = system: SK-MEL-2 melanoma
# SNB-19 CNS = system: SNB-19 CNS
# OVCAR-8 ovarian = system: OVCAR-8 ovarian
# MOLT-4 leukemia = system: MOLT-4 leukemia
# HOP-62 NSCLC = system: HOP-62 NSCLC
# NCI-H460 lung = system: NCI-H460 lung
# 786-0 renal = system: 786-0 renal
# EKVX NSCLC = system: EKVX NSCLC
# M19-MEL melanoma = system: M19-MEL melanoma
# KM20L2 colon = system: KM20L2 colon
# XF 498 CNS = system: XF 498 CNS
# ACHN renal = system: ACHN renal
# SW-620 colon = system: SW-620 colon
# UACC-257 melanoma = system: UACC-257 melanoma
# UACC-62 melanoma = system: UACC-62 melanoma
# HCT-116 colon = system: HCT-116 colon
# CAKI-1 renal = system: CAKI-1 renal
# MALME-3M melanoma = system: MALME-3M melanoma
# RXF 393 renal = system: RXF 393 renal
# DLD-1 colon = system: DLD-1 colon
# RXF-631 renal = system: RXF-631 renal
# A549 NSCLC = system: A549 NSCLC
# LOX IMVI melanoma = system: LOX IMVI melanoma
# U251 CNS = system: U251 CNS
# HL-60(TB) leukemia = system: HL-60(TB) leukemia
# SK-MEL-28 melanoma = system: SK-MEL-28 melanoma
# DMS 273 small cell lung = system: DMS 273 small cell lung
# SK-MEL-5 melanoma = system: SK-MEL-5 melanoma
# DMS 114 small cell lung = system: DMS 114 small cell lung
# K-562 leukemia = system: K-562 leukemia
# SNB-75 CNS = system: SNB-75 CNS
# RPMI-8226 leukemia = system: RPMI-8226 leukemia
# OVCAR-3 ovarian = system: OVCAR-3 ovarian
# HOP-18 NSCLC = system: HOP-18 NSCLC
# HT29 colon = system: HT29 colon
# SNB-78 CNS = system: SNB-78 CNS
# SF-295 CNS = system: SF-295 CNS
# SK-OV-3 ovarian = system: SK-OV-3 ovarian
# M14 melanoma = system: M14 melanoma
# IGROV1 ovarian = system: IGROV1 ovarian
# HOP-92 NSCLC = system: HOP-92 NSCLC
# OVCAR-4 ovarian = system: OVCAR-4 ovarian
# NCI-H23 lung = system: NCI-H23 lung
# CCRF-CEM leukemia = system: CCRF-CEM leukemia
# UO-31 renal = system: UO-31 renal
# HCT-15 colon = system: HCT-15 colon
# COLO 205 colon = system: COLO 205 colon
# SN12C renal = system: SN12C renal
# KM12 colon = system: KM12 colon
# SF-268 CNS = system: SF-268 CNS
# NCI-H226 lung = system: NCI-H226 lung
# OVCAR-5 ovarian = system: OVCAR-5 ovarian
# LXFL 529 NSCLC = system: LXFL 529 NSCLC
# HCC-2998 colon = system: HCC-2998 colon
# NCI-H522 lung = system: NCI-H522 lung
# SF-539 CNS = system: SF-539 CNS
# SR leukemia = system: SR leukemia
# A498 renal = system: A498 renal
compound,measurement,setting,value
COc1cc(C2C(C(=O)O)=C(COC(C)=O)Oc3cc4c(cc32)OCO4)cc(OC)c1OC(C)=O (stereo unspecified),TGI,TK-10 renal,> 100 µM
same,TGI,SK-MEL-2 melanoma,> 100 µM
same,TGI,SNB-19 CNS,> 100 µM
same,TGI,OVCAR-8 ovarian,> 100 µM
same,TGI,MOLT-4 leukemia,> 100 µM
same,TGI,HOP-62 NSCLC,> 100 µM
same,TGI,NCI-H460 lung,> 100 µM
same,TGI,786-0 renal,> 100 µM
same,TGI,EKVX NSCLC,> 100 µM
same,TGI,M19-MEL melanoma,> 100 µM
same,TGI,KM20L2 colon,> 100 µM
same,TGI,XF 498 CNS,> 100 µM
same,TGI,ACHN renal,> 100 µM
same,TGI,SW-620 colon,> 100 µM
same,TGI,UACC-257 melanoma,> 100 µM
same,TGI,UACC-62 melanoma,> 100 µM
same,TGI,HCT-116 colon,> 100 µM
same,TGI,CAKI-1 renal,> 100 µM
same,TGI,MALME-3M melanoma,> 100 µM
same,TGI,RXF 393 renal,> 100 µM
same,TGI,DLD-1 colon,> 100 µM
same,TGI,RXF-631 renal,> 100 µM
same,TGI,A549 NSCLC,> 100 µM
same,TGI,LOX IMVI melanoma,> 100 µM
same,TGI,U251 CNS,> 100 µM
same,TGI,HL-60(TB) leukemia,> 100 µM
same,TGI,SK-MEL-28 melanoma,> 100 µM
same,TGI,DMS 273 small cell lung,> 100 µM
same,TGI,SK-MEL-5 melanoma,> 100 µM
same,TGI,DMS 114 small cell lung,> 100 µM
same,TGI,K-562 leukemia,> 100 µM
same,TGI,SNB-75 CNS,> 100 µM
same,TGI,RPMI-8226 leukemia,> 100 µM
same,TGI,OVCAR-3 ovarian,> 100 µM
same,TGI,HOP-18 NSCLC,> 100 µM
same,TGI,HT29 colon,> 100 µM
same,TGI,SNB-78 CNS,> 100 µM
same,TGI,SF-295 CNS,> 100 µM
same,TGI,SK-OV-3 ovarian,> 100 µM
same,TGI,M14 melanoma,> 100 µM
same,TGI,IGROV1 ovarian,> 100 µM
same,TGI,HOP-92 NSCLC,> 100 µM
same,TGI,OVCAR-4 ovarian,> 100 µM
same,TGI,NCI-H23 lung,> 100 µM
same,TGI,CCRF-CEM leukemia,> 100 µM
same,TGI,UO-31 renal,> 100 µM
same,TGI,HCT-15 colon,> 100 µM
same,TGI,COLO 205 colon,> 100 µM
same,TGI,SN12C renal,> 100 µM
CC(=O)Oc1c(Br)ccc2cc(C(Br)Br)c(C(=O)c3ccccc3)nc12,TGI,TK-10 renal,31.9 µM
same,TGI,SK-MEL-2 melanoma,48.2 µM
same,TGI,SNB-19 CNS,39.1 µM
same,TGI,OVCAR-8 ovarian,53 µM
same,TGI,MOLT-4 leukemia,46.2 µM
same,TGI,HOP-62 NSCLC,34.4 µM
same,TGI,KM12 colon,37.1 µM
same,TGI,NCI-H460 lung,44.4 µM
same,TGI,SF-268 CNS,53.5 µM
same,TGI,786-0 renal,46.9 µM
same,TGI,EKVX NSCLC,39.4 µM
same,TGI,M19-MEL melanoma,44.1 µM
same,TGI,KM20L2 colon,42.2 µM
same,TGI,XF 498 CNS,36.1 µM
same,TGI,ACHN renal,44.3 µM
same,TGI,SW-620 colon,48.2 µM
same,TGI,UACC-257 melanoma,8.87 µM
same,TGI,UACC-62 melanoma,39.4 µM
same,TGI,HCT-116 colon,42.9 µM
same,TGI,CAKI-1 renal,12.9 µM
same,TGI,MALME-3M melanoma,51 µM
same,TGI,RXF 393 renal,33.8 µM
same,TGI,DLD-1 colon,51.5 µM
same,TGI,RXF-631 renal,47.6 µM
same,TGI,A549 NSCLC,43.4 µM
same,TGI,LOX IMVI melanoma,50.9 µM
same,TGI,NCI-H226 lung,40.2 µM
same,TGI,OVCAR-5 ovarian,31.1 µM
same,TGI,U251 CNS,36.3 µM
same,TGI,SK-MEL-28 melanoma,36.1 µM
same,TGI,DMS 273 small cell lung,42.3 µM
same,TGI,SK-MEL-5 melanoma,38.7 µM
same,TGI,DMS 114 small cell lung,49.6 µM
same,TGI,LXFL 529 NSCLC,52.3 µM
same,TGI,K-562 leukemia,44.1 µM
same,TGI,HCC-2998 colon,32.6 µM
same,TGI,SNB-75 CNS,46 µM
same,TGI,HOP-18 NSCLC,31.2 µM
same,TGI,HT29 colon,40.1 µM
same,TGI,NCI-H522 lung,14.8 µM
same,TGI,SF-539 CNS,42.3 µM
same,TGI,SNB-78 CNS,71.4 µM
same,TGI,SF-295 CNS,35.1 µM
same,TGI,M14 melanoma,40.8 µM
same,TGI,IGROV1 ovarian,76.5 µM
same,TGI,SR leukemia,74.2 µM
same,TGI,OVCAR-4 ovarian,21.7 µM
same,TGI,NCI-H23 lung,37.5 µM
same,TGI,UO-31 renal,35.9 µM
same,TGI,HCT-15 colon,44.2 µM
same,TGI,COLO 205 colon,52.7 µM
same,TGI,SN12C renal,45.6 µM
CCCCN(CCCC)CC(C(=O)Nc1ccc([N+](=O)[O-])cc1[N+](=O)[O-])/C(C)=N\NC(=O)C[N+](C)(C)C (stereo unspecified),TGI,TK-10 renal,> 100 µM
same,TGI,SK-MEL-2 melanoma,> 100 µM
same,TGI,SNB-19 CNS,> 100 µM
same,TGI,OVCAR-8 ovarian,> 100 µM
same,TGI,MOLT-4 leukemia,> 100 µM
same,TGI,HOP-62 NSCLC,> 100 µM
same,TGI,KM12 colon,> 100 µM
same,TGI,NCI-H460 lung,> 100 µM
same,TGI,SF-268 CNS,> 100 µM
same,TGI,786-0 renal,> 100 µM
same,TGI,EKVX NSCLC,> 100 µM
same,TGI,M19-MEL melanoma,> 100 µM
same,TGI,KM20L2 colon,> 100 µM
same,TGI,XF 498 CNS,> 100 µM
same,TGI,ACHN renal,> 100 µM
same,TGI,UACC-257 melanoma,> 100 µM
same,TGI,UACC-62 melanoma,> 100 µM
same,TGI,HCT-116 colon,> 100 µM
same,TGI,CAKI-1 renal,> 100 µM
same,TGI,MALME-3M melanoma,> 100 µM
same,TGI,RXF 393 renal,> 100 µM
same,TGI,DLD-1 colon,> 100 µM
same,TGI,RXF-631 renal,> 100 µM
same,TGI,A549 NSCLC,> 100 µM
same,TGI,LOX IMVI melanoma,> 100 µM
same,TGI,NCI-H226 lung,> 100 µM
same,TGI,OVCAR-5 ovarian,> 100 µM
same,TGI,U251 CNS,> 100 µM
same,TGI,HL-60(TB) leukemia,> 100 µM
same,TGI,SK-MEL-28 melanoma,> 100 µM
same,TGI,DMS 273 small cell lung,31.2 µM
same,TGI,SK-MEL-5 melanoma,> 100 µM
same,TGI,A498 renal,> 100 µM
same,TGI,DMS 114 small cell lung,> 100 µM
same,TGI,LXFL 529 NSCLC,> 100 µM
same,TGI,K-562 leukemia,> 100 µM
same,TGI,HCC-2998 colon,> 100 µM
same,TGI,SNB-75 CNS,> 100 µM
same,TGI,RPMI-8226 leukemia,73.8 µM
same,TGI,OVCAR-3 ovarian,> 100 µM
same,TGI,HOP-18 NSCLC,> 100 µM
same,TGI,HT29 colon,> 100 µM
same,TGI,NCI-H522 lung,> 100 µM
same,TGI,SF-539 CNS,> 100 µM
same,TGI,SNB-78 CNS,> 100 µM
same,TGI,SF-295 CNS,> 100 µM
same,TGI,SK-OV-3 ovarian,> 100 µM
same,TGI,M14 melanoma,> 100 µM
same,TGI,IGROV1 ovarian,> 100 µM
same,TGI,SR leukemia,49.7 µM
same,TGI,HOP-92 NSCLC,> 100 µM
same,TGI,OVCAR-4 ovarian,> 100 µM
same,TGI,NCI-H23 lung,> 100 µM
same,TGI,CCRF-CEM leukemia,> 100 µM
same,TGI,UO-31 renal,> 100 µM
same,TGI,HCT-15 colon,> 100 µM
same,TGI,COLO 205 colon,> 100 µM
same,TGI,SN12C renal,> 100 µM
CCOC(=O)/C(=C/c1ccccc1Br)P(=O)(OCC)OCC,TGI,TK-10 renal,7.98 µM
same,TGI,SK-MEL-2 melanoma,3.7 µM
same,TGI,SNB-19 CNS,6.21 µM
same,TGI,OVCAR-8 ovarian,8.09 µM
same,TGI,MOLT-4 leukemia,5.35 µM
same,TGI,HOP-62 NSCLC,12 µM
same,TGI,KM12 colon,4.52 µM
same,TGI,NCI-H460 lung,10.7 µM
same,TGI,SF-268 CNS,10.5 µM
same,TGI,786-0 renal,2.66 µM
same,TGI,EKVX NSCLC,8.16 µM
same,TGI,M19-MEL melanoma,3.68 µM
same,TGI,KM20L2 colon,5.67 µM
same,TGI,XF 498 CNS,3.56 µM
same,TGI,ACHN renal,6 µM
same,TGI,SW-620 colon,4.45 µM
same,TGI,UACC-62 melanoma,3.29 µM
same,TGI,HCT-116 colon,10.1 µM
same,TGI,CAKI-1 renal,4.3 µM
same,TGI,MALME-3M melanoma,3.47 µM
same,TGI,RXF 393 renal,2.44 µM
same,TGI,DLD-1 colon,4.85 µM
same,TGI,RXF-631 renal,8.45 µM
same,TGI,A549 NSCLC,10.7 µM
same,TGI,LOX IMVI melanoma,3.09 µM
same,TGI,NCI-H226 lung,6.89 µM
same,TGI,OVCAR-5 ovarian,5.92 µM
same,TGI,U251 CNS,3.18 µM
same,TGI,HL-60(TB) leukemia,1.94 µM
same,TGI,SK-MEL-28 melanoma,4.66 µM
same,TGI,DMS 273 small cell lung,3.04 µM
same,TGI,SK-MEL-5 melanoma,3.51 µM
same,TGI,A498 renal,8.61 µM
same,TGI,LXFL 529 NSCLC,2.92 µM
same,TGI,K-562 leukemia,2 µM
same,TGI,HCC-2998 colon,3.24 µM
same,TGI,SNB-75 CNS,6.02 µM
same,TGI,RPMI-8226 leukemia,3.36 µM
same,TGI,OVCAR-3 ovarian,5.46 µM
same,TGI,HOP-18 NSCLC,10.7 µM
same,TGI,HT29 colon,13.9 µM
same,TGI,NCI-H522 lung,2.32 µM
same,TGI,SF-539 CNS,6.22 µM
same,TGI,SF-295 CNS,12.2 µM
same,TGI,M14 melanoma,2.95 µM
same,TGI,IGROV1 ovarian,10.1 µM
same,TGI,HOP-92 NSCLC,3.45 µM
same,TGI,OVCAR-4 ovarian,4.2 µM
same,TGI,NCI-H23 lung,4.09 µM
same,TGI,CCRF-CEM leukemia,3.16 µM
same,TGI,HCT-15 colon,5.87 µM
same,TGI,SN12C renal,5.76 µM
